Measured values taken from article PMC9147192, “Small Molecule Arranged Thermal Proximity Coaggregation (smarTPCA)—A Novel Approach to Characterize Protein–Protein Interactions in Living Cells by Similar Isothermal Dose–Responses” (International Journal of Molecular Sciences, 2022).

Key:
Assay in all cases: TPP-CCR in living HL-60 cells
Format in all cases: cell-based
SCO1 = molecular target: T1, SCO1 (Homo sapiens, UniProt O75880)
T1 construct: endogenous in cells; host or cells: HL-60 (ATCC CCL-240)
T1 sequence (O75880 68-301): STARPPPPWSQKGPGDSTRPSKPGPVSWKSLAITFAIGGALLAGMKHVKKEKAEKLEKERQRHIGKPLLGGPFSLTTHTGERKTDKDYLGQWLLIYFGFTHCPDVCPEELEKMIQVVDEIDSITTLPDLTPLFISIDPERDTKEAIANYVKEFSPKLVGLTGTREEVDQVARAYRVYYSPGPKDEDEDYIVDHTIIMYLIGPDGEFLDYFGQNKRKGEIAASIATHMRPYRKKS
Source text: (§1) Therefore, we performed TPP with compound concentration range (TPP-CCR) experiments according to published procedures. In brief, after preparing tryptic peptides from the non-denatured protein fractions (used for immunoblotting in the previous sections) applying the SP3 method, the peptides were labeled using TMT10plex, coding for inhibitor concentration, and the samples belonging to a TMT set were combined, offline high-pH fractionated, and analyzed by MS.
(§2) HL-60 cells were expanded as described above for CETSA and TPP-TR to 1.25 million cells per milliliter. […] A number of 2.5 million cells in 2 mL of medium were added to each tube and incubated (1 h, 37 °C). After centrifugation (300 rcf, 3 min, r.t.) and removing all of the supernating culture medium, the cells were washed once with 2 mL and once with 0.5 mL PBS (r.t.) by gently resuspending the cells, followed by centrifugation (300 rcf, 3 min, r.t.) and the complete removal of the supernatants.
(§3) After transferring the cells from the 2 mL Eppendorf tubes into correspondingly labeled PCR tubes (tube strips) using 100 µL of ice-cold PBS supplemented with protease inhibitors for resuspending the cells, the samples were further processed as described above for CETSA and TPP-TR, however, by applying a single treatment temperature of 51 °C.
(§4) For each sample set comprising ten compound concentration range samples, a same volume of the cell extracts containing the fraction of soluble, non-denatured proteins, corresponding to an average of 5 µg total protein, was used for further analysis. The calculated volume was respectively transferred into PCR tubes of a tube strip and supplemented with SDS sample buffer without DTT and bromophenol blue (final concentrations: 7.5% glycerol, 3% SDS, 37.5 mM Tris/HCl pH 7.0) and ddH2O to a final volume of 10 µL, respectively. Reduction and alkylation were performed by addition of 2.5 µL 100 mM dithiothreitol (DTT; incubation: 20 min, 56 °C, 1000 rpm in an Eppendorf ThermoMixer C, covering the tubes with aluminum foil to minimize condensation in the lids) and 3.33 µL 300 mM iodoacetamide (IAA; incubation: 15 min, r.t., in the dark without shaking), as well as 2.5 µL 100 mM DTT (incubation: 15 min, r.t., without shaking; quenching of excess of IAA). […] The beads were collected and washed (3× 200 µL 80% ethanol p.a. in HPLC-MS grade water, 1 × 200 µL acetonitrile (ACN; HPLC gradient grade)) using a device for handling of magnetic particles [patent US20100200405A1]. The ACN of the last washing step was completely removed by aspiration without letting the beads dry out.
(§5) Tryptic digest was performed on-bead by resuspending (use of an ultrasound bath may be required) the beads in 20 µL 50 mM TEAB in HPLC-MS grade water containing 0.1 µg Trypsin/Lys-C mix and 16.5 h incubation at 37 °C and 1000 rpm (Eppendorf ThermoMixer C, covering the tubes with aluminum foil to minimize condensation in the lids). Tryptic fragmentation of proteins was optimized by addition of another 0.1 µg of Trypsin/Lys-C mix in 2 µL 50 mM TEAB and 4 h incubation at 37 °C and 1000 rpm. After centrifugation for about 1 min in a table top centrifuge and magnetic concentration and retention of the beads at the inner tube wall, the supernatants containing the peptides were transferred into new PCR tubes (of tube strips) and were stored at −80 °C. The beads were discarded.
(§6) Half of the peptide samples (11 µL containing about 2.5 µg peptides) were transferred into new PCR tubes (of tube strips) and allowed to equilibrate to r.t. TMT labeling reagents were reconstituted as described for the TPP-TR samples, and 1 µL each was added to the reconstituted peptides according to the following scheme and homogenized immediately by aspiration and dispensing:
(§7) Peptide separation was performed as described above for the analysis of TPP-TR samples. […]

LRRC59 = molecular target: T2, LRRC59 (Homo sapiens, UniProt Q96AG4)
T2 construct: endogenous in cells; host or cells: HL-60 (ATCC CCL-240)
T2 sequence (Q96AG4 1-307): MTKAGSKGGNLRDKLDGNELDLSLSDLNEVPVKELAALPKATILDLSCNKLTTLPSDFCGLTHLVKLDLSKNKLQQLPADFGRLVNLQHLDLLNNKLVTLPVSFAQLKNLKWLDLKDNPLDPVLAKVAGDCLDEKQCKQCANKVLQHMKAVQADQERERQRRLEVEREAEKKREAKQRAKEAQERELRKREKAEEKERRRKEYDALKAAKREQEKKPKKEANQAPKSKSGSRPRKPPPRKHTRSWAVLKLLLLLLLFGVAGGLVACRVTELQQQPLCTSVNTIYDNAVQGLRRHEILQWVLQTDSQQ
Source text: as §1, §2, §3, §4, §5, §6, §7

PDCD4 = molecular target: T3, PDCD4 (Homo sapiens, UniProt Q53EL6)
T3 construct: endogenous in cells; host or cells: HL-60 (ATCC CCL-240)
T3 sequence (Q53EL6 1-469): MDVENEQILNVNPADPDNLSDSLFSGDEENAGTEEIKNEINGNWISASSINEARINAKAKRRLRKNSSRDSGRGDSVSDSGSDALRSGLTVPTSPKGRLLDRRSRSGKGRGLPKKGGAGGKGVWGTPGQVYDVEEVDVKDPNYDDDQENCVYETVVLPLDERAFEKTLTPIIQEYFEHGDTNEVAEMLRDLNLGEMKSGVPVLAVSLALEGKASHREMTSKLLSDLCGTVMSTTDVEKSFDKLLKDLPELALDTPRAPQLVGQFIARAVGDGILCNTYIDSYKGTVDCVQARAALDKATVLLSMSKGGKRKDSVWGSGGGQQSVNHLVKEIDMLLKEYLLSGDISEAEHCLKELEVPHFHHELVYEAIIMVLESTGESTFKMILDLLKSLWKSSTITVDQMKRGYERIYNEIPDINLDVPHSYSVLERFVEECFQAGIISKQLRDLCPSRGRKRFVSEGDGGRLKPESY
Source text: as §1, §2, §3, §4, §5, §6, §7

[1] = living HL-60 cells, […] °C, TMT-MS

Structure (SMILES): Cc1cnc(Nc2ccc(F)cc2Cl)nc1-c1c[nH]c(C(=O)N[C@H](CO)c2cccc(Cl)c2)c1 [ERK 11e]
- Hill slope (SCO1; TPP-CCR, living cells, SCO1): 1.25
- Hill slope (SCO1) (SCO1; [1]): 1.25
- EC50 (SCO1; living HL-60 cells, […] °C, TMT-MS, read-out: pEC50 (SCO1) (converted)): 2820 nM
- Hill slope (LRRC59; TPP-CCR, living cells, LRRC59): 0.59
- Hill slope (LRRC59) (LRRC59; [1]): 0.59
- EC50 (LRRC59; living HL-60 cells, […] °C, TMT-MS, read-out: pEC50 (LRRC59) (converted)): 1480 nM
- Hill slope (PDCD4; TPP-CCR, living cells, PDCD4): 0.69
- Hill slope (PDCD4) (PDCD4; [1]): 0.69
- EC50 (PDCD4; living HL-60 cells, […] °C, TMT-MS, read-out: pEC50 (PDCD4) (converted)): 1050 nM
